The assay addresses T1, full-length human BTK (Homo sapiens, UniProt Q06187).
T1 construct: 2.5× stocks of full-length human BTK (08-080) from CarnaBio USA, Inc; purchased CarnaBio USA, Inc., Natick, Mass; 08-080
Put plainly: BTK IC50 Enzyme Assay (Assay A), microfluidic off-chip mobility shift kinase assay. Format: biochemical. The conditions noted are these: kinKDR peptide substrate, 90 min at 27° C. The procedure: BTK IC50 Enzyme Assay (Assay A)
The following describes a microfluidic, off-chip mobility shift kinase assay used to measure inherent potency of compounds against BTK enzyme.
2.5× stocks of full-length human BTK (08-080) from CarnaBio USA, Inc., Natick, Mass., 1.6×ATP and appropriate kinKDR peptide substrate (FITC-AHA-EEPLYWSFPAKKK10 NH2) were prepared in kinase reaction buffer consisting of 25 mM MgCl2, 0.015% Brij-35 (30%), 100 mM Hepes, pH 7.5, and 10 mM DTT.
5 uL of enzyme buffer and 7.5 uL of ATP/kinKDR peptide substrate mix were added to Matrix (#115304) 384-well, sterile, polypropylene plates (Thermo Fisher Scientific, 15 Hudson, N.H.) with 125 nL of serially diluted compounds prepared in 100% DMSO, and incubated for 90 min. at 27° C. Following the incubation period, reactions were stopped by adding 60 uL stop buffer consisting of 100 mM Hepes, pH 7.5, 0.015% Brij-35 (30%), 0.277% Coating Reagent #3 (Caliper Life Sciences, Mountain View, Calif.), 5% DMSO. Stopped reactions were monitored at −2 PSI, −3000 V/−700 V in a LabChip 3000 plate 20 reader from Caliper Life Sciences, a PerkinElmer Company (Hopkinton, Mass.), and the activity was measured by off-chip mobility shift assay measuring the charge/mass difference between substrate and product resulting from peptide phosphorilation. IC50 and efficacy were determined by plotting log [Inhibitor] vs. % Activity in GeneData Screener (Basel, Switzerland).

A value given as a limit tells only on which side of the number the result lay.

T1 sequence (Q06187 whole entry): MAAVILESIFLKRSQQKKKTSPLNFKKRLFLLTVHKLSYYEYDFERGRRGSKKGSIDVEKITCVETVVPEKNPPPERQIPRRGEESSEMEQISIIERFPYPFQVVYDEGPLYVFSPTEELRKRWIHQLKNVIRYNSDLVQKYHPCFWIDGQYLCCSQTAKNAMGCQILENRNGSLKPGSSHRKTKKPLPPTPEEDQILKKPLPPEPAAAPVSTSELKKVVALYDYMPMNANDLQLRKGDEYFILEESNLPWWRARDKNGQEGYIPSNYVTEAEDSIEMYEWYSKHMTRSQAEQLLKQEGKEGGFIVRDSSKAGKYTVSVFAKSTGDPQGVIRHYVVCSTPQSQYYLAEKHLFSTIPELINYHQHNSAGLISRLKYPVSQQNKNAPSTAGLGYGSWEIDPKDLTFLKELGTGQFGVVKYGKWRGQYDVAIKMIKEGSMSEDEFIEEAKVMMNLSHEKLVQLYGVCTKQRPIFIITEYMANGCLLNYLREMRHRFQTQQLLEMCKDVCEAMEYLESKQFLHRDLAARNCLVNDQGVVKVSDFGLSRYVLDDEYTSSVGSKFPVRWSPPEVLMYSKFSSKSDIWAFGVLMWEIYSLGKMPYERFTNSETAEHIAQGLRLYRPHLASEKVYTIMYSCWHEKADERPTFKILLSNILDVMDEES

`C=CC(=O)N1CC(n2ccc3ncnc(Oc4ccc(NC(=O)c5ccccc5)cc4)c32)C1` [Compound 35, N-(4-((5-(1-acryloylazetidin-3-yl)-5H-pyrrolo[3,2-d]pyrimidin-4-yl)oxy)phenyl)benzamide]: the IC50 lay within 100 to 1000 nM.
In the case of `CN(C)C/C=C/C(=O)N[C@H]1C[C@@H](n2ncc3ncnc(Oc4ccc(Oc5ccccc5)cc4)c32)C1` [Compound 36, (E)-4-(dimethylamino)-N-((1s,3s)-3-(7-(4-phenoxyphenoxy)-1H-pyrazolo[4,3-d]pyrimidin-1-yl)cyclobutyl)but-2-enamide] it was 100 to 1000 nM; in that of `C=CC(=O)N1CCC(Cn2ccc3ncnc(Oc4ccc(Oc5ccccc5)cc4)c32)CC1` [Compound 37, 1-(4-((4-(4-phenoxyphenoxy)-5H-pyrrolo[3,2-d]pyrimidin-5-yl)methyl)piperidin-1-yl)prop-2-en-1-one], 100 to 1000 nM; in that of `C/C=C/C(=O)N1CC(n2ccc3ncnc(Oc4ccc(Oc5ccccc5)cc4)c32)C1` [Compound 38, (E)-1-(3-(4-(4-phenoxyphenoxy)-5H-pyrrolo[3,2-d]pyrimidin-5-yl)azetidin-1-yl)but-2-en-1-one], 100 to 1000 nM.
To `C=CC(=O)N[C@H]1CC[C@H](n2ccc3ncnc(Oc4ccc(Oc5ccccc5)cc4)c32)CC1` [Compound 39, N-(trans-4-(4-(4-phenoxyphenoxy)-5H-pyrrolo[3,2-d]pyrimidin-5-yl)cyclohexyl)acrylamide] belongs 100 to 1000 nM; to `C=CC(=O)N1CCC(Cn2ccc3ncnc(-c4cccc(Oc5ccccc5)c4)c32)C1` (centres unmarked) [Compound 40, 1-(3-((4-(3-phenoxyphenyl)-5H-pyrrolo[3,2-d]pyrimidin-5-yl)methyl)pyrrolidin-1-yl)prop-2-en-1-one], 100 to 1000 nM.
To `CN(C)C/C=C/C(=O)N[C@H]1C[C@H](n2ncc3ncnc(Oc4ccc(Oc5ccccc5)cc4)c32)C1` [Compound 41, (E)-4-(dimethylamino)-N-((1r,3r)-3-(7-(4-phenoxyphenoxy)-1H-pyrazolo[4,3-d]pyrimidin-1-yl)cyclobutyl)but-2-enamide] belongs 100 to 1000 nM.
`C=CC(=O)NCCn1ccc2ncnc(Oc3ccc(Oc4ccccc4)cc3)c21` [Compound 42, N-(2-(4-(4-phenoxyphenoxy)-5H-pyrrolo[3,2-d]pyrimidin-5-yl)ethyl)acrylamide]: the IC50 is 1000 to 5000 nM.
For the compound `C=CC(=O)N1CC(n2ccc3ncnc(Oc4cnn(Cc5ccccc5)c4)c32)C1` [Compound 43, 1-(3-(4-((1-benzyl-1H-pyrazol-4-yl)oxy)-5H-pyrrolo[3,2-d]pyrimidin-5-yl)azetidin-1-yl)prop-2-en-1-one], the IC50 was 1000 to 5000 nM.
To `C=CC(=O)N1CCCC(Cn2ccc3ncnc(-c4cccc(Oc5ccccc5)c4)c32)C1` (centres unmarked) [Compound 44, 1-(3-((4-(3-phenoxyphenyl)-5H-pyrrolo[3,2-d]pyrimidin-5-yl)methyl)piperidin-1-yl)prop-2-en-1-one] belongs 1000 to 5000 nM; to `C=CC(=O)N1CCC(Cn2ccc3ncnc(-c4cccc(Oc5ccccc5)c4)c32)CC1` [Compound 45, 1-(4-((4-(3-phenoxyphenyl)-5H-pyrrolo[3,2-d]pyrimidin-5-yl)methyl)piperidin-1-yl)prop-2-en-1-one], 1000 to 5000 nM; to `C=CC(=O)N1CCC(Cn2ccc3ncnc(-c4ccc(Oc5ccccc5)cc4)c32)C1` (centres unmarked) [Compound 46, 1-(3-((4-(4-phenoxyphenyl)-5H-pyrrolo[3,2-d]pyrimidin-5-yl)methyl)pyrrolidin-1-yl)prop-2-en-1-one], 1000 to 5000 nM.
To `C=CC(=O)N1CCC(Cn2ccc3ncnc(-c4ccc(Oc5ccccc5)cc4)c32)CC1` [Compound 47, 1-(4-((4-(4-phenoxyphenyl)-5H-pyrrolo[3,2-d]pyrimidin-5-yl)methyl)piperidin-1-yl)prop-2-en-1-one] belongs above 5000 nM; to `C=CC(=O)N1CCCC(Cn2ccc3ncnc(-c4ccc(Oc5ccccc5)cc4)c32)C1` (centres unmarked) [Compound 48, 1-(3-((4-(4-phenoxyphenyl)-5H-pyrrolo[3,2-d]pyrimidin-5-yl)methyl)piperidin-1-yl)prop-2-en-1-one], above 5000 nM; to `CC(C)=CC(=O)N1CC(n2ccc3ncnc(Oc4ccc(Oc5ccccc5)cc4)c32)C1` [Compound 49, 3-methyl-1-(3-(4-(4-phenoxyphenoxy)-5H-pyrrolo[3,2-d]pyrimidin-5-yl)azetidin-1-yl)but-2-en-1-one], above 5000 nM.
On to `C=CC(=O)N1CCC(n2ccc3ncnc(-c4cccc(Oc5ccccc5)c4)c32)CC1` [Compound 50, 1-(4-(4-(3-phenoxyphenyl)-5H-pyrrolo[3,2-d]pyrimidin-5-yl)piperidin-1-yl)prop-2-en-1-one], for which the IC50 is above 5000 nM.
To `C=C(C)C(=O)N1CC(n2ccc3ncnc(Oc4ccc(Oc5ccccc5)cc4)c32)C1` [Compound 51, 2-methyl-1-(3-(4-(4-phenoxyphenoxy)-5H-pyrrolo[3,2-d]pyrimidin-5-yl)azetidin-1-yl)prop-2-en-1-one] belongs above 5000 nM.
For the compound `C=CC(=O)N1CC(n2ccc3ncc(-c4cnn(Cc5ccccc5)c4)nc32)C1` [Compound 52, 1-(3-(3-(1-benzyl-1H-pyrazol-4-yl)-5H-pyrrolo[2,3-b]pyrazin-5-yl)azetidin-1-yl)prop-2-en-1-one], the IC50 lay within 100 to 1000 nM.
As for `CCC/C=C(\C#N)C(=O)N1CCC(n2ccc3ncnc(Oc4ccc(Oc5ccccc5)cc4)c32)CC1` [Compound 55, (E)-2-(4-(4-(4-phenoxyphenoxy)-5H-pyrrolo[3,2-d]pyrimidin-5-yl)piperidine-1-carbonyl)hex-2-enenitrile], the IC50 is 1000 to 5000 nM.
To `N#CN1CCC(n2ccc3ncnc(Oc4ccc(Oc5ccccc5)cc4)c32)CC1` [Compound 56, 4-(4-(4-phenoxyphenoxy)-5H-pyrrolo[3,2-d]pyrimidin-5-yl)piperidine-1-carbonitrile] belongs 1000 to 5000 nM; to `N#CNC(=O)N1CCC(n2ccc3ncnc(Oc4ccc(Oc5ccccc5)cc4)c32)CC1` [Compound 57, N-cyano-4-(4-(4-phenoxyphenoxy)-5H-pyrrolo[3,2-d]pyrimidin-5-yl)piperidine-1-carboxamide], 100 to 1000 nM.
As for `N#CN1CCC(Cn2ccc3ncnc(Oc4ccc(Oc5ccccc5)cc4)c32)C1` (centres unmarked) [Compound 58, 3-[[4-(4-phenoxyphenoxy)-5H-pyrrolo[3,2-d]pyrimidin-5-yl]methyl]pyrrolidine-1-carbonitrile], the half-inhibitory concentration (IC50) was 1000 to 5000 nM.
In the case of `N#CN1CCC(Cn2ccc3ncnc(Oc4ccc(Oc5ccccc5)cc4)c32)CC1` [Compound 59, 4-[[4-(4-phenoxyphenoxy)-5H-pyrrolo[3,2-d]pyrimidin-5-yl]methyl]piperidine-1-carbonitrile], the IC50 is above 5000 nM.
Take `N#CN1CCCC1Cn1ccc2ncnc(Oc3ccc(Oc4ccccc4)cc3)c21` (centres unmarked) [Compound 61, 2-[[4-(4-phenoxyphenoxy)-5H-pyrrolo[3,2-d]pyrimidin-5-yl]methyl]pyrrolidine-1-carbonitrile]: the IC50 lay in the range of 1000 to 5000 nM.
In the case of `N#CN1CCCCC1Cn1ccc2ncnc(Oc3ccc(Oc4ccccc4)cc3)c21` (centres unmarked) [Compound 62, 2-[[4-(4-phenoxyphenoxy)-5H-pyrrolo[3,2-d]pyrimidin-5-yl]methyl]piperidine-1-carbonitrile], the IC50 fell in the range of 1000 to 5000 nM.
In the case of `N#CN1CCCC(Cn2ccc3ncnc(Oc4ccc(Oc5ccccc5)cc4)c32)C1` (centres unmarked) [Compound 63, 3-[[4-(4-phenoxyphenoxy)-5H-pyrrolo[3,2-d]pyrimidin-5-yl]methyl]piperidine-1-carbonitrile] it was above 5000 nM.
`N#CN1CCCC(n2ccc3ncnc(Oc4ccc(Oc5ccccc5)cc4)c32)C1` (centres unmarked) [Compound 64, 3-[4-(4-phenoxyphenoxy)-5H-pyrrolo[3,2-d]pyrimidin-5-yl]piperidine-1-carbonitrile]: the IC50 was 100 to 1000 nM.
In the case of `N#CN1CCC1Cn1ccc2ncnc(Oc3ccc(Oc4ccccc4)cc3)c21` (centres unmarked) [Compound 65, 2-[[4-(4-phenoxyphenoxy)-5H-pyrrolo[3,2-d]pyrimidin-5-yl]methyl]azetidine-1-carbonitrile] it was 1000 to 5000 nM; in that of `N#CN1CC(Cn2ccc3ncnc(Oc4ccc(Oc5ccccc5)cc4)c32)C1` [Compound 66, 3-[[4-(4-phenoxyphenoxy)-5H-pyrrolo[3,2-d]pyrimidin-5-yl]methyl]azetidine-1-carbonitrile], 1000 to 5000 nM; in that of `CN(C#N)[C@H]1C[C@H](n2ccc3ncnc(Oc4ccc(Oc5ccccc5)cc4)c32)C1` [Compound 67, (1R,3R)—N-cyano-N-methyl-3-[4-(4-phenoxyphenoxy)-5H-pyrrolo[3,2-d]pyrimidin-5-yl]cyclobutan-1-amine], 100 to 1000 nM.
To `N#CN1CC(n2ccc3ncnc(Oc4ccc(Oc5ccccc5)cc4)c32)C1` [Compound 68, 3-[4-(4-phenoxyphenoxy)-5H-pyrrolo[3,2-d]pyrimidin-5-yl]azetidine-1-carbonitrile] belongs 1000 to 5000 nM; to `N#CN1CC2(CC(n3ccc4ncnc(Oc5ccc(Oc6ccccc6)cc5)c43)C2)C1` [Compound 69, 6-[4-(4-phenoxyphenoxy)-5H-pyrrolo[3,2-d]pyrimidin-5-yl]-2-azaspiro[3.3]heptane-2-carbonitrile], 1000 to 5000 nM.

The values are drawn from patent US9738648B2, “Pyridines, pyrimidines, and pyrazines, as BTK inhibitors and uses thereof” (Merck Patent GmbH, priority 2013, dated 2017).
